In ChEMBL document CHEMBL1155147, “Interdomain loop mutation Asp190Cys of the tetracycline efflux transporter TetA(B) decreases affinity for substrate” (2007):
Where a chain is given by its changes, count along the chain named. Names may count otherwise. Converted amounts (≈) assume the structure as drawn.

B1: Tetracycline resistance protein, class B (Escherichia coli), P02980 (protein)
chain: MNSSTKIALVITLLDAMGIGLIMPVLPTLLREFIASEDIANHFGVLLALYALMQVIFAPWLGKMSDRFGRRPVLLLSLIGASLDYLLLAFSSALWMLYLGRLLSGITGATGAVAASVIADTTSASQRVKWFGWLGASFGLGLIAGPIIGGFAGEISPHSPFFIAALLNIVTFLVVMFWFRETKNTRDNTDTEVGVETQSNSVYITLFKTMPILLIIYFSAQLIGQIPATVWVLFTENRFGWNSMMVGFSLAGLGLLHSVFQAFVAGRIATKWGEKTAVLLGFIADSSAFAFLAFISEGWLVFPVLILLAGGGIALPALQGVMSIQTKSHQQGALQGLLVSLTNATGVIGPLLFAVIYNHSLPIWDGWIWIIGLAFYCIIILLSMTFMLTPQAQGSKQETSA
B2: Tetracycline resistance protein, class B (Escherichia coli), P02980 D190C (protein)
chain: B1 chain with D190C

Tests used:
Escherichia coli [1] = test: Antibacterial activity against intact Escherichia coli DH5alpha expressing wild-type tetracycline efflux transporter TetA(B) gene; format: functional
Escherichia coli [2] = test: Antibacterial activity against intact Escherichia coli DH5alpha; format: functional
Escherichia coli [3] = test: Antibacterial activity against intact Escherichia coli DH5alpha expressing tetracycline efflux transporter TetA(B) Asp190Cys mutant gene; format: functional
[4] = substrate: CN(C)[C@@H]1C(O)=C(C(N)=O)C(=O)[C@@]2(O)C(O)=C3C(=O)c4c(O)cccc4[C@@](C)(O)[C@H]3C[C@@H]12; test: Activity of tetracycline efflux transporter TetA(B) in Escherichia coli DH5alpha membrane vesicles assessed as [3H]tetracycline uptake per mg of protein; format: cell membranes
[5] = substrate: CN(C)[C@@H]1C(O)=C(C(N)=O)C(=O)[C@@]2(O)C(O)=C3C(=O)c4c(O)cccc4[C@@](C)(O)[C@H]3C[C@@H]12; test: Activity of tetracycline efflux transporter TetA(B) in Escherichia coli DH5alpha membrane vesicles assessed as [3H]tetracycline uptake; format: cell membranes
[6] = substrate: CN(C)[C@@H]1C(O)=C(C(N)=O)C(=O)[C@@]2(O)C(O)=C3C(=O)c4c(O)cccc4[C@@](C)(O)[C@H]3C[C@@H]12; test: Activity of tetracycline efflux transporter TetA(B) Asp190Cys mutant in Escherichia coli DH5alpha membrane vesicles assessed as [3H]tetracycline uptake; format: cell membranes
[7] = substrate: CN(C)[C@@H]1C(O)=C(C(N)=O)C(=O)[C@@]2(O)C(O)=C3C(=O)c4c(O)cccc4[C@@](C)(O)[C@H]3C[C@@H]12; test: Activity of tetracycline efflux transporter TetA(B) Asp190Cys mutant in Escherichia coli DH5alpha membrane vesicles assessed as [3H]tetracycline uptake per mg of protein; format: cell membranes

| Molecule | MIC (Escherichia coli [1]) [µg/mL] | MIC (Escherichia coli [2]) [µg/mL] | MIC (Escherichia coli [3]) [µg/mL] | Vmax [4] [pmol/min] | Km [5] [µM] | Km [6] [µM] | Vmax [7] [pmol/min] |
| --- | --- | --- | --- | --- | --- | --- | --- |
| C[C@H]1c2cccc(O)c2C(=O)C2=C(O)[C@]3(O)C(=O)C(C(N)=O)=C(O)[C@@H](N(C)C)[C@@H]3[C@@H](O)[C@@H]21.O [DOXYCYCLINE] | 32 | 1.25 | 14 |  |  |  |  |
| CN(C)[C@@H]1C(O)=C(C(N)=O)C(=O)[C@@]2(O)C(O)=C3C(=O)c4c(O)cccc4[C@@](C)(O)[C@H]3C[C@@H]12 [TETRACYCLINE] | 128 (≈ 288 µM) | 0.75 (≈ 1.69 µM) | 11 (≈ 24.8 µM) |  |  |  |  |
| B1 |  |  |  | 1270 | 22 |  |  |
| B2 |  |  |  |  |  | 83 | 1330 |
